Assay results from PubChem BioAssay (NCI).
“And” between values parts separate entries of the source, which are not always exact repeats. Equal entries are not always repeated.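 Method: 48-hour compound exposure of cells in 96-well plates, five concentrations, linear interpolation of endpoints. Here, GI50 denotes the concentration required for 50% inhibition of growth. TGI: total growth inhibition.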 Where a SMILES comes first, the peptide text is derived from it. [ ]: non-standard residue; d: D form. The star is where a group is joined. X13 = OC[C@H](CC1CCCCC1)N*; Aib = CC(C)(N)C(=O)O

The molecules below were run on MDA-MB-468 breast (assay: inhibition of tumour cell growth, NCI panel, 48 h).
CCn1c(-c2nonc2N)nc2c(C#CC(C)(C)O)ncc(OC3CCNCC3)c21 gave a GI50 of 267 nM and a TGI of 10400 nM.
With Cc1ccc(F)c(NC(=O)Nc2ccc(-c3cccc4[nH]nc(N)c34)cc2)c1 the GI50 was 2370 nM and 1860 nM and the TGI was 5280 nM and 4610 nM.
CCN1CCC(CC(=O)Nc2n[nH]c3nnc(-c4cccc(F)c4F)cc23)CC1 was tested, and the GI50 was 3450 nM and the TGI was over 23000 nM.
CNCc1cccc2c1OCCCCCCC(C)(O)CC(C)(C)S(=O)(=O)c1ccc(cc1)-c1cnc(N)c(n1)C(=O)N2 (stereo unspecified) gave a GI50 of 196 nM and a TGI of 1160 nM.
CC(c1cc(Cl)ccc1O)c1cc(Cl)ccc1O showed a GI50 of 2980 nM and a TGI of 9470 nM.
CNC(=O)c1nn(C)c2c1C(C)(C)Cc1cnc(Nc3cccc(N4CCN(C)CC4)c3)nc1-2 showed a GI50 of 348 nM and a TGI of 3300 nM.
Cc1ccc([P+](Cc2ccccc2)(c2ccccc2)c2ccccc2)cc1 gave a GI50 of 517 nM and a TGI of 8640 nM.
Molecule CN1CCN(C(=O)[C@@]2(C)CC[C@]3(C)CC[C@]4(C)C(=CC[C@@H]5[C@@]6(C)CCC(=O)NC(C)(C)[C@@H]6CC[C@]54C)[C@@H]3C2)CC1 has a GI50 of 1220 nM and a TGI of 2820 nM.
For CCCCCCC1N=C(N)N=C(N)N1c1cccc(Cl)c1 (stereo unspecified), the GI50 was 122 nM and the TGI was 936 nM.
N#Cc1c(NCc2ccccc2)nc(NCc2ccccc2)c(C#N)c1-c1ccc(Cl)cc1 showed a GI50 of over 50000 nM and a TGI of over 50000 nM.
Work on NC(=O)c1cccc2c(N[C@H](CN3CCC3)c3ccc(Cl)c(C(F)(F)F)c3)ncnc12 yielded a GI50 of 108 nM and a TGI of 1280 nM.
For COc1ccc2c(c1)N(Cc1ccc(Cl)cc1)CCC2N1CCCC1=O (stereo unspecified), the GI50 was 3410 nM and the TGI was 19900 nM.
In the case of C[C@@H](N)COc1ccc(-c2cnc3ccc(N[C@H](C)c4cccc(F)c4)nn23)cc1, the GI50 is reported as 1130 nM and the TGI is reported as 2670 nM.
With O=C(CCCn1c2c(sc3ccccc32)c(=O)n2nnc(-c3ccccc3)c12)NCCc1cnc[nH]1 the GI50 was 664 nM and the TGI was 1940 nM.
C[C@H](c1ccc(F)cc1CCCC(=O)O)N(c1cc(F)ccc1F)S(=O)(=O)c1ccc(Cl)cc1 showed a GI50 of 17300 nM and a TGI of 84700 nM.
Molecule CC(=O)NC(C)(C)C(=O)N[C@@H](C)C(=O)NC(C)(C)C(=O)N[C@@H](C)C(=O)NC(C)(C)C(=O)N[C@@H](C)C(=O)N[C@@H](CCC(N)=O)C(=O)NC(C)(C)C(=O)N[C@H](C(=O)NC(C)(C)C(=O)NCC(=O)N[C@@H](CC(C)C)C(=O)NC(C)(C)C(=O)N1CCC[C@H]1C(=O)N[C@H](C(=O)NC(C)(C)C(=O)NC(C)(C)C(=O)N[C@@H](CCC(N)=O)C(=O)N[C@@H](CCC(N)=O)C(=O)N[C@H](CO)CC1CCCCC1)C(C)C)C(C)C (Ac-[Aib]A[Aib]A[Aib]AQ[Aib]V[Aib]GL[Aib]PV[Aib][Aib]QQ-X13) has a GI50 of 665 nM and a TGI of over 4350 nM.
CCC(C)(C)c1cc(O)c(C(C)(C)CC)cc1O was tested, and the GI50 was 2110 nM and the TGI was 5800 nM.
COc1ccc(-c2cc(/C=C3\C(=O)Nc4cc(Cl)ccc43)[nH]n2)cc1 was tested, and the GI50 was 2620 nM and the TGI was 9480 nM.
O=C([O][Hg][c]1ccccc1)c1ccccc1 gave a GI50 of 435 nM and a TGI of 1940 nM.
CS(=O)(=O)N1CCC(n2c(=O)c(Oc3ccc(F)cc3F)cc3cnc(NC4CCOCC4)nc32)CC1 gave a GI50 of over 25000 nM and a TGI of over 25000 nM.
With Oc1c(C(Nc2ccccn2)c2cccc(Oc3ccccc3)c2)ccc2cccnc12 (stereo unspecified) the GI50 was 441 nM and the TGI was 8920 nM.
Molecule OCc1ccc(-c2csc(-c3ccc(CO)o3)c2)o1 has a GI50 of 188 nM and a TGI of 486 nM.
Cn1cc(C2=C(c3c4n(c5ccccc35)CCNC4)C(=O)NC2=O)c2ccccc21 gave a GI50 of 3810 nM and a TGI of over 20900 nM.
Molecule Oc1cc(N2CC2)c(O)cc1N1CC1 has a GI50 of 201 nM and a TGI of 1270 nM.
Cc1ccc(C2=Nn3c(nnc3-c3ccccc3)SC2)cc1 gave a GI50 of 1690 nM and a TGI of 8080 nM.
For CC1=C/C=C/C(=O)O[C@@H]([C@H](C)[C@H](O)[C@@H](C)NC(=O)C(C)C)[C@H](C)/C=C/C(C)=C/[C@H]2C=CCC[C@@]2(C)\C=C\1, the GI50 was 110 nM and 23.5 nM and the TGI was 6410 nM.
Cc1ccccc1C1=C(c2cn(C)c3ccccc23)C(=O)NC1=O gave a GI50 of 15500 nM and a TGI of over 25000 nM.
COC(=O)c1ccc2nc(-c3cc4ccccc4n3C)n(CCCCOc3cc4c(cc3OC)C(=O)N3CCC[C@H]3C=N4)c2c1 gave a GI50 of 356 nM and a TGI of 1260 nM.
CN1CCN(Cc2ccc(NC(=O)c3cncc(C#Cc4c(N)ncc5ccc(C#N)cc45)c3)cc2C(F)(F)F)CC1 showed a GI50 of 2890 nM and a TGI of 11500 nM.
For CN(C)C1CCN(Cc2ccc(NC(=O)c3cncc(C#Cc4cnc(N)c5ncccc45)c3)cc2C(F)(F)F)CC1, the GI50 was 6490 nM and the TGI was 16500 nM.
In the case of O=C(c1ccccc1)C(Cl)C(Cl)c1ccccc1 (stereo unspecified), the GI50 is reported as 1380 nM and the TGI is reported as 4310 nM.
O=C(/C=C/C12c3ccccc3C(c3ccccc31)C1C(=O)N(c3ccc(Cl)cc3)C(=O)C12)c1ccccn1 (stereo unspecified) was tested, and the GI50 was 398 nM.
CS(=O)(=O)CCNCc1ccc(-c2ccc3ncnc(Nc4ccc(OCc5cccc(F)c5)c(Cl)c4)c3c2)o1 was tested, and the GI50 was 51.8 nM and 57.1 nM and 13 nM and the TGI was 818 nM and 999 nM and 152 nM.
CCCCCCCCCCCCCC[n+]1ccccc1 gave a GI50 of 111 nM and a TGI of 631 nM.
For C/C(CCC(=O)O)=N/Nc1ccc([N+](=O)[O-])cc1, the GI50 was over 100000 nM and the TGI was over 100000 nM.
With COC1=CC(c2ccc[nH]2)=N/C1=C\c1[nH]c(C)c(C(=O)CCC(=O)Oc2ccc3c(c2)CCC2C3CC[C@]3(C)[C@@H](O)CC[C@@H]23)c1C (stereo partly specified) the GI50 was 2520 nM and the TGI was 39800 nM.
In the case of CNS(=O)(=O)OCC1OC(n2cnc3cncnc32)C(O)C1O (stereo unspecified), the GI50 is reported as over 100000 nM and the TGI is reported as over 100000 nM.
COc1cc(-c2cc3ncccc3c3nc(OCCN(C)C)c4cccnc4c23)cc(OC)c1OC gave a GI50 of 919 nM and a TGI of 5360 nM.
For CN1CC=C(c2cc(NC(=O)Nc3ccc(Oc4ccnc(NC(=O)C5CC5)c4)c(F)c3)cc(C(F)(F)F)c2)CC1, the GI50 was 286 nM and the TGI was 1990 nM.
With N#CC1C[C@@H]2CC3(CCC2CN1C(=O)c1ccccc1)OCCO3 (stereo partly specified) the GI50 was over 100000 nM and the TGI was over 100000 nM.
In the case of Cc1ccc(-c2nc3nc(-c4ccc(F)cc4)nc(N4CCNCC4)c3o2)cc1, the GI50 is reported as 1740 nM and the TGI is reported as 3380 nM.
